Data taken from a melting point compilation (Tetko et al.; mined from patent text by program, amines drawn as free bases though some values may be those of a salt).

First: O=S(=O)(Nc1cccc(CCOCc2ccc(-c3ccc(C(F)(F)F)cc3)cc2)c1)C(F)(F)F
Second: CCCCc1nn(-c2ccc([N+](=O)[O-])cc2C(F)(F)F)c(=O)n1Cc1ccc(-c2ccccc2S(N)(=O)=O)cc1
The melting point of the first is lower: 98 to 100 °C for the first, 218 to 220 °C for the second.

Compared with `COC1=CCc2cccc(NC(C)=O)c2C1`, `Cc1cccc(C)c1NC(=O)c1ccc(Cl)nc1` is lower in melting point: 191 to 192 °C for the first, 165 to 166 °C for the second.

Compared with `CCn1cc(C(=O)O)c(=O)c2cc(F)c(N3CC(CNC)C3)nc21`, `CCOC(=O)c1cn(-c2ccc(OC)cc2)c2cc(F)c(F)cc2c1=O` is higher in melting point: 180 to 182 °C for the first, 212 to 214 °C for the second.

First: CCCCc1ccc(NC(=O)CBr)c([N+](=O)[O-])c1
Second: CCOC(=O)CC(=O)C=Cc1ccccc1[N+](=O)[O-]
The melting point of the first is lower: 56 to 57 °C for the first, 72 °C for the second.

First: CC(C(=O)NCC(COC(=O)C(C)(C)C)Cc1ccc(C(C)(C)C)cc1)c1ccc(NS(C)(=O)=O)c(F)c1 (configuration not stated)
Second: Cc1c(CC(=O)NCCO)cc(-c2ccc(S(C)(=O)=O)cc2)n1-c1ccc(F)cc1
The melting point of the first is lower: 44 to 46 °C for the first, 99 °C for the second.

First: N#Cc1c(C(F)(F)F)nn(-c2c(Cl)cc(C(F)(F)F)cc2Cl)c1N(C(=O)C1CC1)C(=O)C1CC1
Second: Cc1nc(Nc2c([N+](=O)[O-])cc(C(F)(F)F)c(Cl)c2[N+](=O)[O-])c(Cl)cc1Cl
The melting point of the first is lower: 126 to 127 °C for the first, 128 to 130 °C for the second.

First: Nc1nc2c(nc(Br)n2Cc2ccc(Cl)cc2)c(=O)[nH]1
Second: Nc1ccc2c(Cl)cc(Cl)nc2n1
The melting point of the first is higher: over 300 °C for the first, 213 to 216 °C for the second.

Going from `COc1cc(NC(=O)Oc2ccccc2)ccc1S(=O)(=O)n1c(=O)n(C2CCCCCC2)c2cc(Cl)ccc21` to `COC1CSC2=C(SC1)C(OC(=O)Oc1ccccc1)N(c1ccc(Cl)cn1)C2=O` (configuration not stated), the melting point falls from 234 °C to 167 °C.

Compared with `CC(=O)C12OC1CC1C3CC=C4CC(O)CCC4(C)C3CCC12C` (configuration not stated), `CC(CCCC(C)(C)O)C1CCC2C3=CC=C4CC(O)C(OCCCO)C(O)C4(C)C3CCC21C` (configuration not stated) is lower in melting point: 194 to 196 °C for the first, 118 to 120 °C for the second.

First: COc1cc2ncnc(N3CCN(C(=O)NCc4ccc(CO)cc4)CC3)c2cc1OC
Second: COc1cc2[nH]c(=O)c3c(c2cc1OC)CCN(C(=O)c1ccccc1)C3
The melting point of the first is lower: 228 to 229 °C for the first, 290 to 297 °C for the second.

First: Nc1nc2ccccc2c2c1ncn2CCCCNC(=O)Oc1ccc2ccccc2c1
Second: CCc1nc2c(N)nc3ccccc3c2n1CCCCS(=O)(=O)NC
The melting point of the first is lower: 154 to 155 °C for the first, 190 to 191 °C for the second.

Compared with `CC(C)n1nc(-c2c(-c3ccccc3)nn3ccc(OCc4cccnc4)cc23)ccc1=O`, `O=c1cc(NCc2ccccc2)c(-c2nc[nH]n2)nn1-c1ccccc1` is higher in melting point: 145 to 146 °C for the first, 192 to 193 °C for the second.

First: CCCCCCCCCCC=C1SC(=S)N(CC(=O)O)C1=O
Second: CCCCCCCCCCCCCCc1onc(C(=O)NN)c1O
The melting point of the first is lower: 61 to 63 °C for the first, 130 °C for the second.

First: CC(O)c1nc2c(OCc3ccccc3)cccc2n1C (configuration not stated)
Second: CC(C)c1ccn2nc(SCc3ccccc3)nc2n1
The melting point of the first is higher: 148 to 150 °C for the first, 65 to 66 °C for the second.

First: CC(=O)O[C@@H](Cc1ccc(OCCN2CCC(C)(C)c3cc(C(=O)c4ccccc4)ccc32)cc1)C(=O)O
Second: COC(=O)C(=O)c1ccc(OCCSc2ccc3ccccc3c2)cc1
The melting point of the first is lower: 60 to 62 °C for the first, 63 to 65 °C for the second.

Compared with `CCOC(=O)C(C)(C)CCCCOc1ccc(NC(=O)CCCCCn2ccnc2)cc1`, `COC(=O)c1ccccc1COc1ccc(CCCO)cc1` is lower in melting point: 64 to 65 °C for the first, 50.5 to 52 °C for the second.

Compared with `Cc1ccc(C(=O)C2=C(O)C(=O)N(c3ccc(C)nn3)C2c2ccc(OC(F)(F)F)cc2)cc1` (configuration not stated), `FC(F)(F)Oc1ccc(Nc2cc(N3CCOCC3)nc(-c3ccccc3)n2)cc1` is lower in melting point: 215 °C for the first, 144 to 146 °C for the second.

First: CC(O)c1nc(NCCCOc2cccc(CN3CCCCC3)c2)n(C)n1 (configuration not stated)
Second: CC(C)(C)CNc1nc(Cl)cc(N2CCCC2)n1
The melting point of the first is lower: 67 to 68 °C for the first, 147 to 150 °C for the second.

Compared with `O=C(C=Cc1ccc(-c2nnn[nH]2)cc1)N1CCc2c([nH]c3ccccc23)C1c1ccc2c(c1)OCO2` (configuration not stated), `O=C1N(Cc2cccc(OCc3ccccc3)c2)c2ccccc2C12COc1cc3c(cc12)CCO3` (configuration not stated) is lower in melting point: 232 to 233 °C for the first, 66 to 68 °C for the second.

First: O=C(OCc1ccccc1)N1CC[C@@H](Oc2ccc([N+](=O)[O-])cc2)[C@H](O)C1 (relative stereo)
Second: COC(=O)c1cscc1NC(=O)COc1ccc(-c2ccccc2)cc1
The melting point of the first is higher: 179 to 180 °C for the first, 132 to 135 °C for the second.

First: N#Cc1ccc2c(c1)NC(=O)CO2
Second: N#Cc1ccc(C=S)c(-c2ccccc2)c1
The melting point of the first is higher: 243 to 245 °C for the first, 88 °C for the second.

Compared with `CCOC(=O)C1C(C)C=CC(NC(=O)OC(C)(C)C)C1[N+](=O)[O-]` (configuration not stated), `CC(C)(C)OC(=O)NNC(=O)c1ncc(OCc2ccccc2)c(OCc2ccccc2)c1CCl` is higher in melting point: 139 to 145 °C for the first, 170 to 171 °C for the second.

Compared with `COC(=O)c1cc(NC(=O)c2ccc(Cl)cc2)c2cc(Cc3ccc(F)cc3)cnc2c1O`, `COc1ccc(Cl)cc1C(=O)NCCc1ccc(-c2ccc(Cl)cc2)c(S(N)(=O)=O)c1` is lower in melting point: 253 to 254 °C for the first, 185 °C for the second.

First: Oc1ccc(Oc2cccc(-c3nnc(Nc4ccc(Cl)c(Cl)c4)s3)c2)cc1
Second: CN(C)CC1CCc2cc(OCc3ccc(NC(=O)c4cc5ccccc5s4)cc3)ccc2C1 (configuration not stated)
The melting point of the first is higher: 224 to 226 °C for the first, 165 to 169 °C for the second.

First: CC(C)(CS(=O)(=O)c1ccc(Cl)cc1)C(=O)C(Oc1ccc(Cl)cc1)n1cncn1 (configuration not stated)
Second: CCOC(=O)N1CCN(c2ccc(-n3cnn(C(C)(C)C(O)c4ccc(Cl)cc4)c3=O)cc2)CC1 (configuration not stated)
The melting point of the first is lower: 55 to 60 °C for the first, 108 °C for the second.

Compared with `CC1N(CCCCS(=O)(=O)O)c2ccc3ccccc3c2C1(C)C` (configuration not stated), `CCOCc1nc2c(N)nc3cc(/C=C/S(=O)(=O)c4ccccc4)ccc3c2n1CCCOC(C)C` is lower in melting point: 263 °C for the first, 188 to 190 °C for the second.

First: CCn1ncc2c3[nH]c4ccnn4c(=O)c3cnc21
Second: COc1cccc2c(=O)c3ccc(SC)cc3oc12
The melting point of the first is higher: over 300 °C for the first, 201 to 203 °C for the second.

First: CC(C)N1CC2CC(C1)CN(S(=O)(=O)c1ccccc1)C2
Second: CN1Cn2ncc([N+](=O)[O-])c2-c2ccccc21
The melting point of the first is lower: 85.5 to 86.5 °C for the first, 172 to 173 °C for the second.

Compared with `CCC(CC)Oc1cc(C)nc(Nc2c(C)cc(C)cc2C)c1C(=O)C#N`, `CCOc1ccccc1Nc1nc(Nc2cc3c(cc2OC)CCN(CC(=O)N(C)C)CC3)ncc1Cl` is lower in melting point: 108 to 110 °C for the first, 60 to 79 °C for the second.

Compared with `O=c1[nH]c2c(n(O)c1=O)C1=C(CCC(n3ccc(CN4CCN(c5ccc([N+](=O)[O-])cc5)CC4)c3)=C1)CC2`, `COC(=O)COc1ccc(C(=O)CN2CCN(c3ccncc3)CC2)cc1` is lower in melting point: over 230 °C for the first, 150 to 152 °C for the second.

First: CC(C)N(C(=O)CN1C(=O)CC(=O)N(c2ccccc2)c2ccccc21)c1ccc(C(F)(F)F)cc1
Second: Cn1cc(C2=C(c3cn(CCCSc4ncccn4)c4ccccc34)C(=O)NC2=O)c2ccccc21
The melting point of the first is higher: 186 to 188 °C for the first, 125 to 127 °C for the second.

First: CC(=O)Oc1cccc2c1C(=O)c1c(OC(C)=O)cccc1C2C(=O)C1CCCC1
Second: O=C1CCC(N2Cc3c(OCc4cn5ccccc5n4)cccc3C2=O)C(=O)N1 (configuration not stated)
The melting point of the first is lower: 180 °C for the first, 222 to 224 °C for the second.

Compared with `CN(C=C(C#N)C#N)c1ccc(Cl)cn1`, `CC(=O)C(=Cc1ccc(C#N)cc1)C(C)=O` is lower in melting point: 136 to 137 °C for the first, 86 to 88 °C for the second.

First: C=Cc1ccc(CSCCOC(=O)COCC(=O)O)cc1
Second: CCOc1cccc(CC(=O)O)c1OCCn1cc(C(=O)NCc2ccc(Cl)cc2Cl)c(OCC)n1
The melting point of the first is lower: 63 to 68 °C for the first, 145 to 146 °C for the second.

Compared with `CCN(CC)CCNC(=O)N1CCCC(S(=O)(=O)c2ccc(OCCN(C)C)cc2)C1` (configuration not stated), `CCOC(=O)c1cnn2c1c(NCCCN(C)C)nc1ccccc12` is lower in melting point: 79 to 80 °C for the first, 72 to 74 °C for the second.

First: COc1cc2c(Nc3ccc4cn[nH]c4c3)c(C#N)cnc2cc1OCCN(C)CC1OCCO1
Second: CCN1CCc2ccc(Nc3ncc(Cl)c(N[C@@H]4c5ccccc5C[C@@H]4O)n3)cc2CC1
The melting point of the first is lower: 185 to 187 °C for the first, 209 °C for the second.

First: COC(=O)c1c(C(C)C)nc2c(c1-c1ccc(F)cc1)CCC(=O)N2
Second: Cc1c(N2CCN(C(=O)OC(C)(C)C)CC2)nn2c(-c3ccncc3)c(-c3ccc(F)cc3)nc2c1C
The melting point of the first is lower: 191 °C for the first, 231 to 233 °C for the second.

First: Nc1nc(Cl)cc(Oc2ccc3c(C(=O)Nc4cccc(C(F)(F)F)c4)cnn3c2)n1
Second: CC(C)Oc1ccc(-c2nn(C(C)c3oc4ccccc4c(=O)c3-c3cccc(F)c3)c3ncnc(N)c23)cc1F (configuration not stated)
The melting point of the first is higher: 219 to 221 °C for the first, 204 to 206 °C for the second.

First: CN1CCCC1=Cc1ccc(Br)cc1
Second: CC1(C)CCC(C)(C)c2cc(C(=O)C(=O)Nc3ccc(C(=O)O)cc3)ccc21
The melting point of the first is lower: 83 to 84 °C for the first, 216 to 217 °C for the second.

First: CCCCNCCCNCCCCCCCCNCCCNCCCC
Second: COc1ccc(Cn2c(=O)c3cc([N+](=O)[O-])ccc3n(CCCCBr)c2=O)cc1
The melting point of the first is higher: over 300 °C for the first, 143 to 144 °C for the second.

Compared with `CCN1C(Cl)=NC(OC)=NS1(=O)=O`, `CC(C)Cc1ccc(C(=O)O)c(=O)n1C` is higher in melting point: 63 to 70 °C for the first, 118 to 119 °C for the second.

First: Cc1nn(C)c(O)c1C(=O)c1ccc(Cl)c(C)c1Cl
Second: Cc1nc(C)c(CC(=O)O)c(-c2ccccc2)c1CC(=O)O
The melting point of the first is higher: 149 to 150 °C for the first, 137 to 138 °C for the second.

First: CCCc1cc([N+](=O)[O-])cc(C=O)c1O
Second: O=[N+]([O-])c1nccn1COCCO
The melting point of the first is lower: 69.5 to 70 °C for the first, 115 °C for the second.

First: c1ccc2c(c1)OCCO2
Second: O=C1Nc2ccccc2SC1CO (configuration not stated)
The melting point of the first is lower: 117 to 118 °C for the first, 156 to 157 °C for the second.

Compared with `COc1ccc(N2CCN(c3ccc(OC)nc3-c3ccc(N(C)C)cc3)CCC2=O)cc1`, `Cc1cc(C#N)cn2cc(-c3ccc(-c4ccc(C#N)cc4)o3)nc12` is higher in melting point: 192 to 193 °C for the first, 276 to 277 °C for the second.

First: COC(=O)c1ccc(OC)cc1S
Second: O=C(Cc1ccc(Cl)nc1)Nc1ccccn1
The melting point of the first is lower: 35 to 37 °C for the first, 130 °C for the second.

Compared with `CSc1nncc(-c2ccccc2)n1`, `CCc1c(F)nc(-c2ccccc2)nc1F` is lower in melting point: 99 to 100 °C for the first, 49 to 51 °C for the second.

First: COC(=O)CC(=O)NC[C@H]1CN(c2ccc3c(c2)CCCc2cnoc2-3)C(=O)O1
Second: CC(O)(CCSc1cc(C(C)(C)C)c(O)c(C(C)(C)C)c1)CC(=O)CCSc1cc(C(C)(C)C)c(O)c(C(C)(C)C)c1 (configuration not stated)
The melting point of the first is higher: 205 to 217 °C for the first, 108 to 110 °C for the second.

Compound `COC(=O)C(F)=CC1C(C(=O)O)C1(C)C` (configuration not stated) has a melting point of 89 °C.
